Counter-ions that a name gives are not always drawn.
biological target: human FLAP (Homo sapiens (Human), UniProt P20292); assay: FLAP binding assay (HTRF); conditions: human FLAP-containing membranes, HTRF format; average of two assay plates, duplicates; read-out: FLAP Binding wild type HTRF Ki
Procedure: The ability of the compounds of the present invention to treat a FLAP-mediated disease and/or disorder, or associated symptoms or complications thereof, was determined using the following procedures. Binding assay data represent the average value obtained from two different assay plates, with samples run in duplicate on each plate. Human whole blood assay data represent a single replicate on an assay plate using whole blood from at least one healthy donor.
Data are expressed as a HTRF ratio.

Chain of human FLAP (P20292 whole entry): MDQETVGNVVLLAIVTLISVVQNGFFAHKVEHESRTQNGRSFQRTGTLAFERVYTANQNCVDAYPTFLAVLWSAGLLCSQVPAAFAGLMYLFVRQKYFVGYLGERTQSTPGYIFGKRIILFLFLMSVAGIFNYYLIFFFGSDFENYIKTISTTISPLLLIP

**Q.** How did the Ki turn out when `COc1c(C2CCC2)ccc(-c2cnc3[nH]cnc3n2)c1F` [Example 182, 5-(4-cyclobutyl-2-fluoro-3-methoxyphenyl)-1H-imidazo[4,5-b]pyrazine] was run?
**A.** The Ki was 1940 nM.

**Q.** For `COc1c(Br)ccc(-c2cnc(N)cn2)c1F` [Example 210, 5-(4-bromo-2-fluoro-3-methoxyphenyl)-pyrazin-2-amine], which Ki is on record?
**A.** Its Ki is 2500 nM.

**Q.** Which Ki does the source give for `COc1c(C2CCCC2)ccc(-c2cnc(N)cn2)c1F` [Example 211, 5-(4-Cyclopentyl-2-fluoro-3-methoxyphenyl)pyrazin-2-amine] here?
**A.** The Ki was 527 nM.

**Q.** Which Ki does the source give for `CC(C)(C)c1ccc(-c2cnc(N)cn2)cc1OCc1ccccc1` [Example 215, 5-[3-(Benzyloxy)-4-tert-butylphenyl]pyrazin-2-amine] here?
**A.** Its Ki is 620 nM.

**Q.** Which Ki does the source give for `Nc1cnc(-c2ccc(Cl)c(OCc3ccccc3)c2F)cn1` [Example 216, 5-[3-(Benzyloxy)-4-chloro-2-fluorophenyl]pyrazin-2-amine] here?
**A.** Its Ki is 866 nM.

**Q.** With `Nc1cnc(-c2ccc(C3CCC3)c(OCc3ccccc3)c2)cn1` [Example 217, 5-[3-(Benzyloxy)-4-cyclobutylphenyl]pyrazin-2-amine] as the molecule, how does the Ki read?
**A.** Its Ki is 1250 nM.

**Q.** `COc1c(C2CCC2)ccc(-c2ccc(N)nn2)c1F` [Example 219, 6-(4-cyclobutyl-2-fluoro-3-methoxyphenyl)pyridazin-3-amine] was tested. Which Ki did it give?
**A.** The Ki was over 10000 nM.

**Q.** With `Oc1c(C2CCC2)ccc(-c2cc3cc[nH]c3nn2)c1F` [Example 221, 6-cyclobutyl-2-fluoro-3-(7H-pyrrolo[2,3-c]pyridazin-3-yl)phenol] as the molecule, how does the Ki read?
**A.** The Ki was 593 nM.

**Q.** How did the Ki turn out when `Nc1ccc(-c2ccc(C3CCC3)c(O)c2F)nn1` [Example 223, 3-(6-aminopyridazin-3-yl)-6-cyclobutyl-2-fluorophenol] was run?
**A.** The Ki was over 10000 nM.

**Q.** `Nc1ccc(-c2ccc(C3CCC3)c(Oc3ncccn3)c2F)nn1` [Example 231, 6-(4-cyclobutyl-2-fluoro-3-(pyrimidin-2-yloxy)phenyl)pyridazin-3-amine] was tested. Which Ki did it give?
**A.** Its Ki is 2140 nM.

**Q.** With `COc1cc(Oc2c(C3CCC3)ccc(-c3ccc(N)nn3)c2F)ncn1` [Example 232, 6-(4-cyclobutyl-2-fluoro-3-((6-methoxypyrimidin-4-yl)oxy)phenyl)pyridazin-3-amine] as the molecule, how does the Ki read?
**A.** Its Ki is 1590 nM.

**Q.** For `Nc1ccc(-c2ccc(C3CCC3)c(Oc3cc(O)ncn3)c2F)nn1` [Example 233, 6-(3-(6-aminopyridazin-3-yl)-6-cyclobutyl-2-fluorophenoxy)pyrimidin-4-ol], which Ki is on record?
**A.** Its Ki is 1680 nM.

**Q.** `Nc1cnc(-c2ccc(C3CCC3)c(OCC3CCOCC3)c2F)cn1` [Example 264, 5-[4-Cyclobutyl-2-fluoro-3-(tetrahydro-2H-pyran-4-ylmethoxy)phenyl]pyrazin-2-amine] was tested. Which Ki did it give?
**A.** Its Ki is over 10000 nM.

**Q.** With `CS(=O)(=O)c1cc(C#N)ccc1Oc1c(C2CCC2)ccc(-c2cnc(N)cn2)c1F` [Example 265, 4-[3-(5-Aminopyrazin-2-yl)-6-cyclobutyl-2-fluorophenoxy]-3-(methylsulfonyl)benzonitrile] as the molecule, how does the Ki read?
**A.** The Ki was over 10000 nM.

**Q.** `Nc1cnc(-c2ccc(C3CCC3)c(Oc3ccc(C(F)(F)F)cc3C(F)(F)F)c2F)cn1` [Example 266, 5-{3-[2,4-Bis(trifluoromethyl)phenoxy]-4-cyclobutyl-2-fluorophenyl}pyrazin-2-amine] was tested. Which Ki did it give?
**A.** The Ki was over 10000 nM.

**Q.** How did the Ki turn out when `CN(C)CCCOc1c(C2CCC2)ccc(-c2cnc(N)cn2)c1F` [Example 267, 5-{4-Cyclobutyl-3-[3-(dimethylamino)propoxy]-2-fluorophenyl}pyrazin-2-amine] was run?
**A.** Its Ki is over 10000 nM.

**Q.** How did the Ki turn out when `CN(C)CCOc1c(C2CCC2)ccc(-c2cnc(N)cn2)c1F` [Example 268, 5-{4-Cyclobutyl-3-[2-(dimethylamino)ethoxy]-2-fluorophenyl}pyrazin-2-amine] was run?
**A.** Its Ki is over 10000 nM.

**Q.** How did the Ki turn out when `Nc1ccnc(Oc2c(C3CCC3)ccc(-c3cc4cc[nH]c4nn3)c2F)n1` [Example 270, 2-[6-Cyclobutyl-2-fluoro-3-(7H-pyrrolo[2,3-c]pyridazin-3-yl)phenoxy]pyrimidin-4-amine] was run?
**A.** The Ki was 800 nM.

**Q.** Which Ki does the source give for `N#Cc1nc(N)ncc1Oc1c(C2CCC2)ccc(-c2cnc(N)cn2)c1F` [Example 273, 2-Amino-5-[3-(5-aminopyrazin-2-yl)-6-cyclobutyl-2-fluorophenoxy]pyrimidine-4-carbonitrile] here?
**A.** The Ki was over 10000 nM.

**Q.** For `Cn1ccnc1COc1c(C2CCC2)ccc(-c2cnc(N)cn2)c1F` [Example 280, 5-{4-Cyclobutyl-2-fluoro-3-[(1-methyl-1H-imidazol-2-yl)methoxy]phenyl}pyrazin-2-amine trifluoroacetic acid salt], which Ki is on record?
**A.** The Ki was over 10000 nM.

**Q.** For `Nc1cnc(-c2ccc(C3CCC3)c(OCc3nc4ccccc4s3)c2F)cn1` [Example 283, 5-[3-(1,3-Benzothiazol-2-ylmethoxy)-4-cyclobutyl-2-fluorophenyl]pyrazin-2-amine trifluoroacetic acid salt], which Ki is on record?
**A.** The Ki was 97.6 nM.

**Q.** Which Ki does the source give for `Cn1cnc(COc2c(C3CCC3)ccc(-c3cnc(N)cn3)c2F)c1` [Example 284, 5-{4-Cyclobutyl-2-fluoro-3-[(1-methyl-1H-imidazol-4-yl)methoxy]phenyl}pyrazin-2-amine trifluoroacetic acid salt] here?
**A.** Its Ki is over 10000 nM.

**Q.** With `Cn1cncc1COc1c(C2CCC2)ccc(-c2cnc(N)cn2)c1F` [Example 285, 5-{4-Cyclobutyl-2-fluoro-3-[(1-methyl-1H-imidazol-5-yl)methoxy]phenyl}pyrazin-2-amine trifluoroacetic acid salt] as the molecule, how does the Ki read?
**A.** The Ki was over 10000 nM.

**Q.** Which Ki does the source give for `Nc1cnc(-c2ccc(C3CCC3)c(OCc3cccnn3)c2F)cn1` [Example 288, 5-[4-Cyclobutyl-2-fluoro-3-(pyridazin-3-ylmethoxy)phenyl]pyrazin-2-amine trifluoroacetic acid salt] here?
**A.** Its Ki is 365 nM.

**Q.** `NCCOc1c(C2CCC2)ccc(-c2cnc(N)cn2)c1F` [Example 294, 5-[3-(2-aminoethoxy)-4-cyclobutyl-2-fluorophenyl]pyrazin-2-amine] was tested. Which Ki did it give?
**A.** Its Ki is 691 nM.

**Q.** How did the Ki turn out when `Nc1cnc(-c2ccc(C3CCC3)c(OCC3CCNCC3)c2F)cn1` [Example 298, 5-[4-Cyclobutyl-2-fluoro-3-(piperidin-4-ylmethoxy)phenyl]pyrazin-2-amine hydrogen chloride salt] was run?
**A.** Its Ki is over 10000 nM.

**Q.** With `Nc1cnc(-c2ccc(C3CCC3)c(OCC3CNC3)c2F)cn1` [Example 301, 5-[3-(Azetidin-3-ylmethoxy)-4-cyclobutyl-2-fluorophenyl]pyrazin-2-amine] as the molecule, how does the Ki read?
**A.** The Ki was over 10000 nM.

**Q.** `Cc1ccc(-c2cnc(N)cn2)c(F)c1Oc1ncccn1` [Example 314, 5-[2-Fluoro-4-methyl-3-(pyrimidin-2-yloxy)phenyl]pyrazin-2-amine] was tested. Which Ki did it give?
**A.** Its Ki is over 10000 nM.

**Q.** `Cc1ccc(-c2cnc(N)cn2)c(F)c1Oc1nccc(N)n1` [Example 315, 2-[3-(5-Aminopyrazin-2-yl)-2-fluoro-6 methylphenoxy]pyrimidin-4-amine] was tested. Which Ki did it give?
**A.** The Ki was 1360 nM.

**Q.** How did the Ki turn out when `CCc1ccc(-c2cnc(N)cn2)c(F)c1Oc1ncccn1` [Example 316, 5-[4-Ethyl-2-fluoro-3-(pyrimidin-2-yloxy)phenyl]pyrazin-2-amine] was run?
**A.** Its Ki is 289 nM.

**Q.** How did the Ki turn out when `CC(C)CCc1ccc(-c2cnc(N)cn2)c(F)c1Oc1ncccn1` [Example 322, 5-(2-Fluoro-4-isopentyl-3-(pyrimidin-2 yloxy)phenyl)pyrazin-2-amine] was run?
**A.** Its Ki is 573 nM.

**Q.** With `Nc1cnc(-c2ccc(CC3CCCCC3)c(Oc3nccc(N)n3)c2F)cn1` [Example 326, 2-(3-(5-Aminopyrazin-2-yl)-6-(cyclohexylmethyl)-2-fluorophenoxy)pyrimidin-4-amine] as the molecule, how does the Ki read?
**A.** Its Ki is 358 nM.

**Q.** With `CC(C)CCc1ccc(-c2cnc(N)cn2)c(F)c1Oc1nccc(N)n1` [Example 327, 2-(3-(5-Aminopyrazin-2-yl)-2-fluoro-6-isopentylphenoxy)pyrimidin-4-amine] as the molecule, how does the Ki read?
**A.** Its Ki is 528 nM.
